Results on one compound are retold here after article PMC10349806 (Nature Communications, 2023).

Structures are written as SMILES. Changes are numbered by the printed parent chain. “And” between values parts separate entries of the source, which are not always exact repeats. Equal entries are not always repeated.

One test concerns the target T1, PfCRT variant E278A (Plasmodium falciparum, UniProt Q9N623, A220S/E278A/I356T/K76T/M74I/N326S/N75E/Q271E/R371I).
T1 sequence (Q9N623 1-424 M74I/N75E/K76T/A220S/Q271E/E278A/N326S/I356T/R371I): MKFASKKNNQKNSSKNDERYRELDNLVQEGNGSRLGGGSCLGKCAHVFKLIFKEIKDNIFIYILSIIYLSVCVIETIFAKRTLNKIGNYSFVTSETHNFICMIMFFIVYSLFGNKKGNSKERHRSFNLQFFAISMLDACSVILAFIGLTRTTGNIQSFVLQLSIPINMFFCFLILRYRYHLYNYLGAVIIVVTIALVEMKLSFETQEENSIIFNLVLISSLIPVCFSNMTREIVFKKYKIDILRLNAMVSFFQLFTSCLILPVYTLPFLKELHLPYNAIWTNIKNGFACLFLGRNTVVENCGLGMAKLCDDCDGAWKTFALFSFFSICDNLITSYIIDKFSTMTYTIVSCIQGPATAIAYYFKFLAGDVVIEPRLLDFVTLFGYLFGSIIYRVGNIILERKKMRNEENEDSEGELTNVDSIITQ
As to the kind of experiment: CQ uptake assay, oocytes expressing E278A. The test is classed as cell-based. The procedure:
(§1) Site-directed mutagenesis of PfCRT^Dd2 was performed as described using the megaprimer method with overlap extension[21],[54]. The primer pairs used are listed in Supplementary Table 6. Please note that a codon-optimized and oocyte-adapted version of PfCRT^Dd2 was used[22] (Supplementary Fig. 16). The resulting DNA fragment was cloned into the SP64T expression vector and verified by sequencing.
(§2) Oocytes were obtained as described previously. Briefly, adult (>2 years old) female X. laevis frogs (NASCO) were anesthetized in a cooled solution of ethyl 3-amino benzoate methanesulfonate (0.1%, w/v), followed by a surgical removal of parts of the ovary. The ovary lobes were carefully dissected and small pieces of oocytes were incubated in Ca^2+-free ND96 buffer (96 mM NaCl, 2 mM KCl, 1 mM MgCl2 buffered with 5 mM HEPES/NaOH, pH 7.5) supplemented with collagenase D (0.1%, w/v; Roche), BSA (0.5%, w/v), and 9 mm Na2HPO4 at 18 °C for 14-16 h while gentle shaking. After incubation, the oocytes were carefully washed several times with ND96 buffer (96 mM NaCl, 2 mM KCl, 1.8 mM CaCl2, 1 mM MgCl2 buffered with 5 mM HEPES/NaOH, pH 7.5) supplemented with 100 mg l^−1 gentamycin). Defolliculated and healthy-looking stage V-VI oocytes were manually selected for RNA microinjection. The RNA was generated as following: The codon-optimized sequences of PfCRT variants were cloned into the pSP64T expression vector. After vector linearization using the restriction endonucleases BamHI or SalI (New England Biolabs), transcription was performed using the in vitro SP6 mMessage mMachine Kit (Ambion)[34]. The obtained RNA was kept at −80 °C and diluted with nuclease-free water to a concentration of 0.6 μg μl^−1. Precision-bore glass capillary tubes (3.5-inch glass capillaries; Drummond Scientific Co.) were pulled on a vertical puller (P-87 Flaming/Brown micropipette puller, Sutter Instrument Co.), graduated, and placed on a microinjector (Nanoject II Auto-Nanoliter Injector, Drummond Scientific Co.). 50 nl of nuclease-free water alone (control oocytes) or 50 nl of 0.6 μg μl^−1 RNA were injected under stereomicroscopic control. Injected oocytes were incubated for 46–72 h at 18 °C with twice-daily buffer changes before usage in experiments.
Drug uptake assays were performed as described previously[21],[22],[24],[34]. […] The direction of radio-labeled drug transport is here from the mostly acidic extracellular solution (pH 4.5 or 6.0, as indicated) into the oocyte cytosol (pH ∼ 7.2), which corresponds to the efflux of drug from the acidic digestive vacuole (pH 5.2) into the parasite cytoplasm (pH 7.2). The topology of PfCRT in the oolemma is such that both the N- and C-terminus face the extracellular milieu[3],[22]. In the parasite, the N- and C-terminus face the lumen of the digestive vacuole. CQ uptake kinetics were performed by incubating oocytes in ND96 buffer adjusted to a pH of 4.5, 5.0, 5.5, or 6.0 and supplemented with 50 nM [^3H]CQ and one of 7 different CQ concentrations (10 µM, 50 µM, 100 µM, 200 µM, 300 µM, 400 µM, 500 µM CQ). The reaction was stopped at the 60 min time point, which is in the linear uptake range[22],[34] (Supplementary Fig. 17). […] The radioactivity of each sample was measured using a liquid scintillation analyzer Tri-Carb 4910 TR (PerkinElmer). Oocytes that were injected with water instead of RNA were analyzed in parallel, representing the uptake of a drug by diffusion and/or endogenous permeation pathways. […]

The next test concerns the target T2, PfCRT variant D311A (Plasmodium falciparum, UniProt Q9N623, A220S/D311A/I356T/K76T/M74I/N326S/N75E/Q271E/R371I).
T2 sequence (Q9N623 1-424 M74I/N75E/K76T/A220S/Q271E/D311A/N326S/I356T/R371I): T1 sequence (Q9N623 1-424 M74I/N75E/K76T/A220S/Q271E/E278A/N326S/I356T/R371I) with A278E, D311A
As to the kind of experiment: CQ uptake assay, oocytes expressing D311A. The test is classed as cell-based. As to the method: as §1, §2
Drug uptake assays were performed as described previously[21],[22],[24],[34]. […] The direction of radio-labeled drug transport is here from the mostly acidic extracellular solution (pH 4.5 or 6.0, as indicated) into the oocyte cytosol (pH ∼ 7.2), which corresponds to the efflux of drug from the acidic digestive vacuole (pH 5.2) into the parasite cytoplasm (pH 7.2). The topology of PfCRT in the oolemma is such that both the N- and C-terminus face the extracellular milieu[3],[22]. In the parasite, the N- and C-terminus face the lumen of the digestive vacuole. CQ uptake kinetics were performed by incubating oocytes in ND96 buffer adjusted to a pH of 4.5, 5.0, 5.5, or 6.0 and supplemented with 50 nM [^3H]CQ and one of 7 different CQ concentrations (10 µM, 50 µM, 100 µM, 200 µM, 300 µM, 400 µM, 500 µM CQ). The reaction was stopped at the 60 min time point, which is in the linear uptake range[22],[34] (Supplementary Fig. 17). For determination of the amount of drug uptake for each oocyte, the reaction medium was removed and the oocytes were washed three times with 2 ml of ice-cold ND96 buffer. Each oocyte was individually transferred to a scintillation vial containing 5% sodium dodecyl sulfate (200 μl) for lysis. The radioactivity of each sample was measured using a liquid scintillation analyzer Tri-Carb 4910 TR (PerkinElmer). Oocytes that were injected with water instead of RNA were analyzed in parallel, representing the uptake of a drug by diffusion and/or endogenous permeation pathways. The resulting value represents the “background“ level of drug accumulation in oocytes (in-depth discussion in[22]). […]

Setting [1] is: E278A, 50 µM CQ, 1 h, mean ± SEM.
Setting [2] is: pH 4.5, single replicates, Fig 1d left.
[3] abbreviates: pH 6.0, single replicates, Fig 1d left.
The mark [4] stands for this setting: D311A, 50 µM CQ, 1 h, mean ± SEM.

As for `CCN(CC)CCCC(C)Nc1ccnc2cc(Cl)ccc12` (centres unmarked) [CQ, chloroquine], the “Activity at pH 4.5” value at PfCRT variant E278A (setting [1]) turned out to be 1.17 ± 0.07 pmol h-1 oocyte-1; on PfCRT variant D311A (setting [4]), 1.07 ± 0.25 pmol h-1 oocyte-1. The “Activity at pH 6.0” value at PfCRT variant E278A (setting [1]) turned out to be 2.21 ± 0.24 pmol h-1 oocyte-1; at PfCRT variant D311A (setting [4]) it was 3.22 ± 0.61 pmol h-1 oocyte-1. The R-value was 0.56 ± 0.10 on PfCRT variant E278A (E278A, CQ transport at pH 4.5 / pH 6.0) and 0.33 ± 0.05 on PfCRT variant D311A (D311A, CQ transport at pH 4.5 / pH 6.0). In addition, the “E278A transport activity pH 4.5” value on PfCRT variant E278A (setting [2]) is 1.19 pmol oocyte-1 h-1 and 1.00 pmol oocyte-1 h-1 and 1.31 pmol oocyte-1 h-1. At PfCRT variant E278A (setting [3]), the “E278A transport activity pH 6.0” value was 2.40 pmol oocyte-1 h-1 and 2.59 pmol oocyte-1 h-1 and 1.63 pmol oocyte-1 h-1. The “D311A transport activity pH 4.5” value at PfCRT variant D311A (setting [2]) was 0.58 pmol oocyte-1 h-1 and 1.64 pmol oocyte-1 h-1 and 0.99 pmol oocyte-1 h-1. Moreover, the “D311A R-value” on PfCRT variant D311A (pH 4.5 vs pH 6.0, Fig 1d left) is 0.22 and 0.35 and 0.42. In addition, at PfCRT variant D311A (setting [3]), the “D311A transport activity pH 6.0” value was 2.63 pmol oocyte-1 h-1 and 4.69 pmol oocyte-1 h-1 and 2.33 pmol oocyte-1 h-1.
